Reference: patent US7960131B2, “Functional genomic pore assay for mixed cell populations” (Wisconsin Alumni Research Foundation, priority 2003, dated 2011)
Numbering of substitutions follows the chain as printed. “And” between values parts separate entries of the source, which are not always exact repeats. Identical values can stand only once.

Columns and labels:
Assay type in all cases: cell-based
P2X7 wild type = target: T1, P2X7 wild type (Homo sapiens, UniProt Q99572); assay: YO-PRO-1 uptake fluorimetric plate assay in transfected HEK 293 cells, P2X7 wild type; details: HEK cells expressing P2X7 wild type, HEPES-buffered saline
T1 construct: expressed in transfected cells
T1 sequence (Q99572 1-595): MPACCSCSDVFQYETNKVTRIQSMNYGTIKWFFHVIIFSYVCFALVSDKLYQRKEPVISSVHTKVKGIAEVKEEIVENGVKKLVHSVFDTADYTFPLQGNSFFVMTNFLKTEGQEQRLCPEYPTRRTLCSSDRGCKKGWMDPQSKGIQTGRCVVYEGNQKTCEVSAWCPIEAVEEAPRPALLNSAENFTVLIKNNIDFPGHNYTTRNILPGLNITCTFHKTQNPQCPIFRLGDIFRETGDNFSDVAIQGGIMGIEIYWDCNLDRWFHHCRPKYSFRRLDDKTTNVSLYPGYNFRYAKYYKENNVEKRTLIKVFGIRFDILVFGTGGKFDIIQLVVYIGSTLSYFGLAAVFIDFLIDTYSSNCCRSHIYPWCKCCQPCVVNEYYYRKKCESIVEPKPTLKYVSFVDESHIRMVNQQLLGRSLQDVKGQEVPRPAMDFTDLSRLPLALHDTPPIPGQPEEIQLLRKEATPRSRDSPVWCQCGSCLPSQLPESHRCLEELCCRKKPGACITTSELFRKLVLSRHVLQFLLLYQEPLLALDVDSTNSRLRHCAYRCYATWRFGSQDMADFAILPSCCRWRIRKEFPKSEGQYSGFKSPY
From the text: (§1) Recombinant Expression and Functional Characterization of Variant P2RX7 Alleles. A pcDNA3 expression vector containing a cloned human P2RX7 cDNA associated with normal pore activity was subjected to point mutagenesis using the Quick Change Kit (Stratagene Inc., city, state) to create the variants P2X7-G150R, P2X7-Q460R, and P2X7-E496A. HEK 293 cells were transfected by the Superfect liposomal method and stable populations were selected by G418 resistance. Expression of P2X7 mRNA and protein in unstimulated transfected HEK cell cultures was verified by RT-PCR and immunoblotting as previously described.
(§2) YO-PRO-1 fluorescence was measured by a Synergy-HT fluorescent plate reader (Biotek, city, state) using X±Y nm excitation and A±B emission filters.

P2X7-E496A = target: T2, P2X7-E496A (Homo sapiens, UniProt Q99572, E496A); assay: YO-PRO-1 uptake fluorimetric plate assay in transfected HEK 293 cells, P2X7-E496A; details: E496A variant
T2 construct: expressed in transfected cells
T2 sequence (Q99572 1-595 E496A): T1 sequence (Q99572 1-595) with E496A
From the text: as §1, §2

P2X7 = target: T3, P2X7 (Homo sapiens, UniProt Q99572); assay: YO-PRO-1 plate assay of P2X7 agonists with astrocytoma cell line 1321N1; details: for YO-PRO-1 fluorescence (485/20, 528/20), single well: 5 × 10^4 1321N1 cells; for YO-PRO-1 fluorescence, average of duplicate wells: 1321N1 cells, agent + YOPRO;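 on all read-outs here: dye uptake read after 20 min agonist exposure with YO-PRO-1 present, unbound dye removed by washing before reading in a fluorescence plate reader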
T3 construct: host or cells: astrocytoma cell line (the earlier reading names it 1321N1)
T3 sequence (Q99572 1-595): T1 sequence (Q99572 1-595)

P2X7-Q460R = target: T4, P2X7-Q460R (Homo sapiens, UniProt Q99572, Q460R); assay: YO-PRO-1 uptake fluorimetric plate assay in transfected HEK 293 cells, P2X7-Q460R
T4 construct: expressed in transfected cells
T4 sequence (Q99572 1-595 Q460R): T1 sequence (Q99572 1-595) with Q460R
From the text: as §1, §2

For “2′-3′-O-(4-benzoylbenzoyl)-adenosine 5′-triphosphate [Bz-ATP]”, which EC50 (P2X7 wild type) is on record?
The EC50 was 30 µM.

And the “increase of YO-PRO-1 fluorescence by Bz-ATP stimulation” value (P2X7 wild type)?
Its value is “roughly four”.

And the “increase in YO-PRO-1 fluorescence” value (P2X7-E496A; potassium glutamate buffer)?
The value was “approximately half-maximal increase”.

And the agonist-inducible pore activity (P2X7-E496A; saline-containing buffers)?
Its agonist-inducible pore activity is “lacking agonist-inducible pore activity”.

What about the “YO-PRO-1 fluorescence (485/20, 528/20), single well” value (“YO-PRO-1 fluorescence … single well” below) (P2X7; agent 1 μM + YOPRO) of the same substance?
Its value is 98 and 89.

And the “YO-PRO-1 fluorescence … single well” value (P2X7; agent 3 μM + YOPRO)?
Its value is 188.

What about the “YO-PRO-1 fluorescence … single well” value (P2X7; agent 10 μM + YOPRO) of the same substance?
The value was 213.

And the “YO-PRO-1 fluorescence … single well” value (P2X7; agent 30 μM + YOPRO)?
The value was 217.

And the “YO-PRO-1 fluorescence … single well” value (P2X7; agent 100 μM + YOPRO)?
Its value is 223 and 214.

What about the “YO-PRO-1 fluorescence … single well” value (P2X7; agent 300 μM + YOPRO) of the same substance?
The value was 220 and 232.

And the “YO-PRO-1 fluorescence, average of duplicate wells” value (P2X7; 1 uM)?
Its value is 93.5.

What about the “YO-PRO-1 fluorescence, average of duplicate wells” value (P2X7; 3 uM) of the same substance?
Its value is 188.

And the EC50 (P2X7-Q460R)?
Its EC50 is roughly 30 µM.

And the “increase in YO-PRO-1 fluorescence over baseline” value (P2X7-Q460R)?
Its value is 8 fold.
